From US20130079312A1, “Method of Treating Hair Loss Due to Systemic Chemotherapy” (ELORAC, LTD., priority 2011, published 2013)

Assay: Topical vasoconstrictor formulation applied to hair-bearing areas of patients receiving cancer chemotherapy; hair loss
Type: in vivo

Structure (SMILES) | hair loss (Oxymetazoline 2.0% by weight in hydroethanolic foam, scalp and eyebrows, 60 minutes prior to intravenous nitrogen mustard, then three times daily for two week intervals) | hair loss (scalp lotion containing 0.01% naphazoline, 30 minutes prior to and 15 minutes after each course of intravenous docetaxel, breast cancer patients)
Cc1cc(C(C)(C)C)c(O)c(C)c1CC1=NCCN1 [Oxymetazoline, oxymetazoline] | prevention of major hair loss | –
c1ccc2c(CC3=NCCN3)cccc2c1 [naphazoline] | – | lose little, if any, of their hair
